Reference: ChEMBL document CHEMBL1914329, “2D MI-DRAGON: a new predictor for protein-ligands interactions and theoretic-experimental studies of US FDA drug-target network, oxoisoaporphine inhibitors for MAO-A and human parasite proteins” (Eur J Med Chem, 2011)

What was measured:
[1] = biological target: T1, Amine oxidase [flavin-containing] A (Homo sapiens, UniProt P21397); test: Inhibition of human recombinant MAOA expressed in baculovirus infected BTI-TN-5B1-4 insect cells assessed as hydrogen peroxide production from p-tyramine after 15 mins by amplex red assay
T1 sequence (P21397 whole entry): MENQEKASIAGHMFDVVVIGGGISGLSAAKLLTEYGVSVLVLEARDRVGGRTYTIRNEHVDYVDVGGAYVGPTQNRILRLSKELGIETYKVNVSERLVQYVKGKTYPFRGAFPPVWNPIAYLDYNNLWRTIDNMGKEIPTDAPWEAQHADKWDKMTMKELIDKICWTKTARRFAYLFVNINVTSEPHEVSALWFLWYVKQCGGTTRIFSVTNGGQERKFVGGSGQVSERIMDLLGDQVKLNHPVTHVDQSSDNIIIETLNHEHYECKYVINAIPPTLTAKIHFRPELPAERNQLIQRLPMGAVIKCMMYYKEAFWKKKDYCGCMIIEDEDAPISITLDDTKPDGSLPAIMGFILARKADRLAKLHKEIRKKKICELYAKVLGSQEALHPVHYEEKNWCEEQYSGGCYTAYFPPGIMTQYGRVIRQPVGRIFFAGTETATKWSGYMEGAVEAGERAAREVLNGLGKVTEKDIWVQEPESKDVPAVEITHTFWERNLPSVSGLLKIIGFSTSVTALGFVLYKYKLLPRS

[2] = biological target: T2, Amine oxidase [flavin-containing] B (Homo sapiens, UniProt P27338); test: biochemical; format: cell-based, BTI-TN-5B1-4
T2 sequence (P27338 whole entry): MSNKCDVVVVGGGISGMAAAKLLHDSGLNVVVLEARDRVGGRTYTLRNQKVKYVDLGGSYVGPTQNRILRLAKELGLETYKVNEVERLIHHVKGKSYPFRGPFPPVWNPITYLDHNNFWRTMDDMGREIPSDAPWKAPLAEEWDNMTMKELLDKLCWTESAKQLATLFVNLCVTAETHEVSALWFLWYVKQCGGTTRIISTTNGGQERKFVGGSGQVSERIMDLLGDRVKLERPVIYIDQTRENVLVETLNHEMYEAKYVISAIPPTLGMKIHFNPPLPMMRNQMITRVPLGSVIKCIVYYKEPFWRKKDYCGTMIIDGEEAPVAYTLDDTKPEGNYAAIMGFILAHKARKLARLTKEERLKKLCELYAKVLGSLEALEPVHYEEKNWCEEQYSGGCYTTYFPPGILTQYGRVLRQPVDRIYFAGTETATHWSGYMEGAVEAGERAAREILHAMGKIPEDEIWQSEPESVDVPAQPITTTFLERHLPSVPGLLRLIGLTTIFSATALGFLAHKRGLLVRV
Description: Inhibition of human recombinant MAOB expressed in baculovirus infected BTI-TN-5B1-4 insect cells assessed as hydrogen peroxide production from p-tyramine after 15 mins by amplex red assay

Homo sapiens = organism: Homo sapiens; test: Selectivity index, ratio of IC50 for human recombinant MAO-B to IC50 for human recombinant MAO-A
[3] = biological target: T2, Amine oxidase [flavin-containing] B; test: Inhibition of human recombinant MAOB expressed in baculovirus infected BTI-TN-5B1-4 insect cells assessed as hydrogen peroxide production from p-tyramine at 1 mM after 15 mins by amplex red assay; settings: bti-tn-5b1-4, 0.25 h, 1000 µM

IC50 [1]	IC50 [2]	Ratio IC50 (Homo sapiens)	inhibition (INH) [3]	SMILES
0.044 µM	> 100 µM	> 2270		COc1cc2c3c(c1O)C(=O)c1ccccc1C3=NCC2
			Not Active	O=C(NCCN1CCOCC1)c1ccc(Cl)cc1 [MOCLOBEMIDE]
	> 100 µM			COc1cc2c3c(nccc3c1)-c1ccccc1C2=O
0.72 µM	> 100 µM	> 139		O=C1c2ccccc2-c2nccc3cccc1c23
0.014 µM	> 100 µM	> 7140		COc1cc2c3c(c1)C(=O)c1ccccc1C3=NCC2
9.81 µM	> 50 µM	> 5.1		COc1cc2c3c(c1)C(O)c1ccccc1C3NCC2 (centres undefined)
0.035 µM	> 100 µM	> 2860		O=C1c2ccccc2-c2nccc3cc(O)cc1c23
2.12 µM	> 50 µM	> 24		COc1cc2c3c(c1)C(=O)C1=C(CCCC1)C3=NCC2
27.3 µM	> 100 µM	> 3.7		O=C1c2ccccc2C2=NCCc3cccc1c32
1.23 µM	> 100 µM	> 81		COc1cc2ccnc3c2c(c1O)C(=O)c1ccccc1-3
0.013 µM	> 100 µM	> 7690		COC1=Cc2ccnc3c2c(cc2ccccc23)C1=O
